The values below come from paper PMC4109836, “Analysis of the co-operative interaction between the allosterically regulated proteins GK and GKRP using tryptophan fluorescence” (Biochemical Journal, 2014).

The target of assay [1] is T1, hGKRP (0.3 μM)–GK-W99R/W167F/W257F (1 μM) complex, GKRP-P446L (Homo sapiens, UniProt P35557+Q14397, P446L/W167F/W257F/W99R).
T1 construct: FLAG; GST (cleaved yes); made in house; host or cells: Escherichia coli
T1 sequence (Q14397 1-625 P446L): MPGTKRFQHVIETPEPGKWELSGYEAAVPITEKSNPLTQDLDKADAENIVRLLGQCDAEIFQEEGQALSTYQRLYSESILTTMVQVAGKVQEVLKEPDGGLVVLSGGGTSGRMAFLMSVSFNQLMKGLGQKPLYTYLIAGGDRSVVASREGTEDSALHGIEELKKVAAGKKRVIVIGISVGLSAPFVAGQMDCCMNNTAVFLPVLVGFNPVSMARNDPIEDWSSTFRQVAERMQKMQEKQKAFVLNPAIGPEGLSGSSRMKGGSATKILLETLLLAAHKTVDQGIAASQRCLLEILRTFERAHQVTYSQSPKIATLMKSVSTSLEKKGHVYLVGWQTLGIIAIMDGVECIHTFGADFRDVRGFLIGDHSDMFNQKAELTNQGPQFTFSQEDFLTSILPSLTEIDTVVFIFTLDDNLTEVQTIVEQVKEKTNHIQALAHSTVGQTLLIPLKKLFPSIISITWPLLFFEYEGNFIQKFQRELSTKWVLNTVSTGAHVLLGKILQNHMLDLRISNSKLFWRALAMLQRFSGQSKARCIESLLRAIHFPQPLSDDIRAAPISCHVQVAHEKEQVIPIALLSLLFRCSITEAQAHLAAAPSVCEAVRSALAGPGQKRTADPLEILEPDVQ
T1 sequence (P35557 1-465 W99R/W167F/W257F): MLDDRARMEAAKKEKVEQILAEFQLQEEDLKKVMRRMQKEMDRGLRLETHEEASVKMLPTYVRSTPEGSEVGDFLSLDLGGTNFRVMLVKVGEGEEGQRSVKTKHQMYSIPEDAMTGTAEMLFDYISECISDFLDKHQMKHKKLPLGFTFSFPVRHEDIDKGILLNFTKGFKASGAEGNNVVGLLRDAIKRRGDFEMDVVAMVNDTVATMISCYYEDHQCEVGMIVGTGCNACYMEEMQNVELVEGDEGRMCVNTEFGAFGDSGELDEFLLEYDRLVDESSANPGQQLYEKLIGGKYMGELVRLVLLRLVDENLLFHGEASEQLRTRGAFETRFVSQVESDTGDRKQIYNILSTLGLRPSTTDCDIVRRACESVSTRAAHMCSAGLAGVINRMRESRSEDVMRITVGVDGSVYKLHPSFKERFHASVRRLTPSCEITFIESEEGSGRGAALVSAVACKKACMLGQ
The assay can be described thus: Ligand binding by / disassembly of GKRP-P446L–GK-W99R/W167F/W257F complex by TF of hGKRP. Conditions: ligand titration of 3:1 GK–GKRP-P446L complex, 20°C. As for the experimental part: (§1) Spectra were measured with a Fluorolog-3-21 Jobin-Yvon Spex Instrument SA equipped with a 450 W Xenon lamp for excitation and a cooled R2658P Hamamatsu photomultiplier tube for detection. For all measurements, 90° geometry was employed and 295 nm excitation wavelengths were used to observe fluorescence emission in the 300–500 nm range. For TF, spectra slit width was set to provide a bandpath of 3 nm for excitation and 3 nm for emission. Spectra were corrected for instrumental response using Spex instrument software. A thermostatically controlled cell holder maintained sample temperature at 20°C. A thermocoupler was used to measure sample temperature. The buffer used contained 20 mM phosphate, 50 mM KCl, 1 mM EDTA and 1 mM DTT (pH 7.2).
(§2) Fluorescence data were obtained via the stepwise addition of the appropriate amount of non-fluorescent GK-W99R/W167F/W257F to GKRP in a fluorescence cuvette. […] The change in GKRP protein fluorescence during titration was also measured using time-dependent scans. A manual procedure was used such that a typical titration with 10–12 additions required 20–25 min to perform. The same buffer as described above was routinely used unless stated otherwise. The bandpath was 0.5 nm at 295 nm for excitation and 12 nm at 340 nm for emission. […] For some graphical presentations the linear form of the Hill equation was used: log[F/(Fsat−F)]=H log x−H log KD [46].

Assay [2] deals with T2, hGKRP (0.3 μM)–GK-W99R/W167F/W257F (1 μM) complex, GKRP-WT (Homo sapiens, UniProt P35557+Q14397, W167F/W257F/W99R).
T2 construct: FLAG; GST (cleaved yes); made in house; host or cells: Escherichia coli
T2 sequence (Q14397 1-625): T1 sequence (Q14397 1-625 P446L) with L446P
T2 sequence (P35557 1-465 W99R/W167F/W257F): T1 sequence (P35557 1-465 W99R/W167F/W257F)
The assay can be described thus: Ligand binding by / disassembly of GKRP-WT–GK-W99R/W167F/W257F complex by TF of hGKRP. As for the experimental part:
as §1, §2

Where [3] appears, read: addition of 6.6 mM D-glucose, 0.3 μM GKRP and 1 μM GK, pH 7.2, mono ExpDecay fit.
Where [4] appears, read: ligand titration of 3:1 GK–GKRP-WT complex, 20°C.

Positions count from the first letter of the chain named.

Regarding `OC[C@H]1OC(O)[C@H](O)[C@@H](O)[C@@H]1O` (stereo partly drawn) [D-Glucose, D-glucose], in assay [1], the H is listed as 1. In assay [2] (setting [3]), the “A (amplitude) of time-dependent decrease in GKRP-WT TF” value is recorded as 0.04 and the “τ of time-dependent decrease in GKRP-WT TF” value turned out to be 11 s. In assay [2] (setting [4]), the H is listed as 1 and the “ΔF (relative fluorescence change at 340 nm)” value was −0.065. Moreover, the Kd in assay [2] (ligand titration of 3:1 GK–GKRP-WT complex, 20°C, read-out: Kd (apparent)) worked out at 12 mM.
